{"source": "patent US20240262845A1", "about": "“PYRIDINIUM SALTS, METHODS OF MAKING, AND METHODS OF USE” (UNIVERSITY OF WYOMING, priority 2023, published 2024)", "tested_on": "HEK293T lysates", "assay": "Chemoproteomic profiling of HEK293T lysates (protein-level enrichment)", "assay_type": "biochemical, human", "description": "In lysate tryptophan probe treatment for protein-level characterization: HEK293T cell pellets were suspended in native lysis buffer (50 mM HEPES pH 7.5, 150 mM sodium chloride (NaCl), 1.5 mM MgCl2, 1 mM DTT, 0.8% NP-40, 5% glycerol, and 1× protease inhibitors (Thermo)) at 2× the pellet volume. The samples were sonicated on ice for 30 seconds at 20% amplitude with a 2 second pulse ON and 3 second pulse OFF. Cell debris was removed by centrifugation at 20,000×g for 20 minutes at 4° C. Protein concentration was determined by bicinchoninic acid (BCA) (Pierce) and diluted down to 5 mg/mL with ChemProt buffer (50 mM HEPES pH 7.5, 150 mM NaCl, 1.5 mM MgCl2, 1 mM DTT, 0.4% NP-40, and 1x protease inhibitors (Thermo). 5 mg cell lysates were treated with 100× stocks of the tryptophan probes (pyridinium salts 1a, 1b, and 2b) to generate final concentrations (0, 1, 10, and 100 μM) in 1% DMSO. Lysates were incubated for 1 hour at 4° C. followed by photo-activation at respective wavelengths for 20 minutes at 4° C. Excess probe was removed using Sephadex G-25 PD-10 desalting columns (GE Healthcare) pre-equilibrated with 50 mM HEPES pH 7.5, 150 mM NaCl, 1.5 mM MgCl2, and 0.4% NP-40. The samples were then treated with 100 μL Neutravidin resin as a 50% slurry (Peirce). The samples were incubated overnight on a rotating apparatus at R.T. The following day, the beads were transferred to a MobiCol column (Boca Scientific), washed 3× with phosphate buffered saline (PBS) containing 0.2% SDS, washed 3× with PBS, and the enriched proteins were eluted with 2× NuPAGE lithium dodecyl sulfate (LDS) containing 10 mM DTT (Pierce) and heated for 30 minutes at 55° C. The eluent was collected and subsequently treated with 20 mM iodoacetamide (Pierce) for 30 minutes at R.T. protected from light. Samples were passed through detergent removal columns (Pierce) that were pre-equilibrated with 50 mM HEPES pH 8.0. The samples were treated with 2.5 μg Trypsin/LysC (Promega) at 37° C. for 16 hours. The following day, the sample was collected and prepped for isobaric labeling with TMT reagents (Thermo) as specified by the manufacturer.\nQuantitative proteomics by two-dimensional nano liquid chromatography-tandem mass spectrometry (nLC-MS/MS): For protein-level characterization, the TMT-labeled sample were reconstituted in 0.1% formic acid (FA)/2% acetonitrile for offline high-pH reversed phase separation (RP10) using a Dionex UltiMate 3000 high-performance liquid chromatography (HPLC) system with fraction collection using Chromeleon v.6.8 (Thermo) software. Separation was achieved on a Waters Xbridge C18 3.5 μm 2.1×150 mm HPLC column (Waters) using a flow rate of 250 μL min-1 and the following ternary gradient and conditions: mobile phase A=water (HPLC grade), mobile phase B=acetonitrile (HPLC grade), and mobile phase C=200 mM ammonium acetate, pH 10. Mobile phase C is held at 10% throughout gradient. Starting conditions are 89% mobile phase A and 1% mobile phase B, ramping mobile phase B to 80% over 65 min. Fractions were collected in 96-well plates at 100 sec per well. Fractions were reduced down to 12 fractions, dried, and reconstituted in 0.1% FA/2% acetonitrile for nLC-MS/MS. All data were acquired using a Orbitrap Fusion Lumos coupled to an Easy-nLC 1200 nanoflow liquid chromatograph operating at 300 nL min-1. Peptides were cleaned up using a 1 cm online custom trap then eluted on a custom 20 cm laser pulled 75 μm column with C18 resin. Peptides were quantified using the synchronous precursor selection (SPS-MS3) or HCD method for TMT quantitation with 120k MS1 resolving power, 50 ms max injection time and 100% AGC. MS2 spectra were selected using the top ten most abundant features with a charge state between 2-6 using CID (collision induced dissociation) in the ion trap. The AGC was set to 100% with an isolation width of 0.7. MS3 was performed on the top 10 most abundant MS2 features between 400-1600 amu with a collision energy of 55%, AGC of 250%, and 50k resolution. […]", "note": "“Also recorded” adds a separate entry of the source. Where a name gives a salt, the structure may show the parent alone.", "data": [{"smiles": "COc1ccc2cc(-c3cc(C)[n+](N(C)C(=O)OCCCCC[C@H]4SC[C@H]5NC(=O)N[C@H]54)c(C)c3)ccc2c1", "note": "(stereo in doubt) [pyridinium salt 2b, 4-(6-methoxynaphthalen-2-yl)-2,6-dimethyl-1-(methyl(((5-((3aR,4R,6aS)-2-oxohexahydro-1H-thieno[3,4-d]imidazol-4-yl)pentyl)oxy)carbonyl)amino)pyridin-1-ium tetrafluoroborate]", "values": [{"measurement": "Western blot (streptavidin-HRP) proteome labeling profile of elutions", "setting": "0-100 μM probe, with/without light, before digestion", "result": "concentration and optically dependent proteome labeling profiles; also recorded: dose-response profiles"}, {"measurement": "percentage of unique enriched proteins (proteome coverage comparison of probes)", "setting": "100 μM probe, FIG. 17B", "result": "about 69%"}, {"measurement": "number of proteins identified (from ≥2 unique peptides) showing ≥2-fold enrichment versus DMSO", "setting": "about 100 μM probe, 5 mg/mL lysate, 60 min incubation, 20 min irradiation: 302 nm (1a), 320 nm (1b), 440 nm (2b)", "result": 523}]}]}
